Experimental data published in ChEMBL document CHEMBL1201862, “PubChem BioAssay data set” (2004).
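96-well plates; 48 h exposure; 5 concentrations. Endpoints by linear interpolation between flanking doses. Not reached: highest tested concentration assigned. GI50 is the concentration that inhibits growth by half.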 Activity calls are given as the source filed them. Cut-off read from the data, not from the text of the source: active = GI50 up to about 1.1 µM and inactive = higher.

Legend:
Test in all cases: NCI tumour cell line growth inhibition, 48 h
RXF 393 = system: RXF 393
SF-539 = system: SF-539
U-251 = system: U-251
SK-MEL-2 = system: SK-MEL-2
HOP-92 = system: HOP-92
NCI-H522 = system: NCI-H522
SK-MEL-5 = system: SK-MEL-5
786-0 = system: 786-0
SNB-75 = system: SNB-75
SK-MEL-28 = system: SK-MEL-28
HCC 2998 = system: HCC 2998
EKVX = system: EKVX
OVCAR-5 = system: OVCAR-5
SF-295 = system: SF-295
HOP-62 = system: HOP-62
HCT-15 = system: HCT-15
DU-145 = system: DU-145
UACC-257 = system: UACC-257
CCRF-CEM = system: CCRF-CEM
K562 = system: K562

SMILES | GI50 (RXF 393) | GI50 (SF-539) | GI50 (U-251) | GI50 (SK-MEL-2) | GI50 (HOP-92) | GI50 (NCI-H522) | GI50 (SK-MEL-5) | GI50 (786-0) | GI50 (SNB-75) | GI50 (SK-MEL-28) | GI50 (HCC 2998) | GI50 (EKVX) | GI50 (OVCAR-5) | GI50 (SF-295) | GI50 (HOP-62) | GI50 (HCT-15) [µM] | GI50 (DU-145) | GI50 (UACC-257) | GI50 (CCRF-CEM) | GI50 (K562)
COc1cc(C(=O)O)c([N+](=O)[O-])c(OC)c1OC | > 100 µM (inactive) | > 100 µM (inactive) | > 100 µM (inactive) | > 100 µM (inactive) | > 100 µM (inactive) | > 100 µM (inactive) | > 100 µM (inactive) | > 100 µM (inactive) | > 100 µM (inactive) | > 100 µM (inactive) | > 100 µM (inactive) | > 100 µM (inactive) | 63.2 µM (inactive) | > 100 µM (inactive) | > 100 µM (inactive) | > 100 | > 100 µM (inactive) | > 100 µM (inactive) | – | –
CC(N/N=C(\S)N1CCN(c2ccccn2)CC1)c1cccc[n+]1[O-] (stereo unspecified) | 16.2 µM (inactive) | 17.4 µM (inactive) | 12.8 µM (inactive) | – | 20.5 µM (inactive) | 2.12 µM (inactive) | 12.5 µM (inactive) | 7.71 µM (inactive) | 48.6 µM (inactive) | 16.8 µM (inactive) | 21.1 µM (inactive) | 6.47 µM (inactive) | – | 12.3 µM (inactive) | 67.3 µM (inactive) | 3.28 | 57.1 µM (inactive) | 30.9 µM (inactive) | 1.98 µM (inactive) | 0.811 µM (active)
CCCCCCOP(=O)(OCCCCCC)OC(C(=O)OC)C(F)(F)F (stereo unspecified) | – | > 100 µM (inactive) | > 100 µM (inactive) | > 100 µM (inactive) | > 100 µM (inactive) | > 100 µM (inactive) | > 100 µM (inactive) | > 100 µM (inactive) | > 100 µM (inactive) | > 100 µM (inactive) | > 100 µM (inactive) | > 100 µM (inactive) | > 100 µM (inactive) | > 100 µM (inactive) | > 100 µM (inactive) | > 100 | > 100 µM (inactive) | > 100 µM (inactive) | > 100 µM (inactive) | > 100 µM (inactive)
OCCCCn1cc(Cn2ncc3c(O)ncnc32)nn1 | > 100 µM (inactive) | > 100 µM (inactive) | > 100 µM (inactive) | > 100 µM (inactive) | > 100 µM (inactive) | > 100 µM (inactive) | > 100 µM (inactive) | > 100 µM (inactive) | – | > 100 µM (inactive) | > 100 µM (inactive) | > 100 µM (inactive) | > 100 µM (inactive) | > 100 µM (inactive) | > 100 µM (inactive) | > 100 | > 100 µM (inactive) | > 100 µM (inactive) | > 100 µM (inactive) | > 100 µM (inactive)
CCOC(=O)C1=C(C)N(c2ccc(Cl)cc2)C2(O)C=CC(=O)C3C(=O)N(c4ccccc4)C(=O)C132 (stereo unspecified) | 1.76 µM (inactive) | 2.27 µM (inactive) | 1.87 µM (inactive) | 1.78 µM (inactive) | 0.0649 µM (active) | 1.1 µM (active) | 1.6 µM (inactive) | 1.53 µM (inactive) | 1.77 µM (inactive) | 1.51 µM (inactive) | – | 1.91 µM (inactive) | 2.01 µM (inactive) | 2.19 µM (inactive) | 2.02 µM (inactive) | 1.82 | 1.87 µM (inactive) | 2.29 µM (inactive) | 0.476 µM (active) | 3.08 µM (inactive)
COC(=O)C1CC2C=CC1N(C(=O)OCc1ccccc1)C2 (stereo unspecified) | > 100 µM (inactive) | > 100 µM (inactive) | > 100 µM (inactive) | > 100 µM (inactive) | – | 0.82 µM (active) | 92 µM (inactive) | > 100 µM (inactive) | > 100 µM (inactive) | > 100 µM (inactive) | > 100 µM (inactive) | 91.4 µM (inactive) | > 100 µM (inactive) | > 100 µM (inactive) | > 100 µM (inactive) | > 100 | > 100 µM (inactive) | > 100 µM (inactive) | > 100 µM (inactive) | > 100 µM (inactive)
CC1=NN(c2nc(N)nc(-c3cc4ccccc4oc3=N)n2)C(C)(C)C1 | 20.7 µM (inactive) | 19.5 µM (inactive) | 27 µM (inactive) | 20 µM (inactive) | 22.9 µM (inactive) | 20.6 µM (inactive) | 16.8 µM (inactive) | 15.3 µM (inactive) | – | 16.5 µM (inactive) | 15 µM (inactive) | 14.7 µM (inactive) | 24.9 µM (inactive) | 18.2 µM (inactive) | 21.4 µM (inactive) | 16.1 | 20.9 µM (inactive) | 16.7 µM (inactive) | 20.7 µM (inactive) | 18.9 µM (inactive)
Cc1nc(N/N=C/c2ccccc2Cl)[nH]c(=O)c1CCO | 25.9 µM (inactive) | 77.4 µM (inactive) | 49.3 µM (inactive) | – | 21.5 µM (inactive) | 17.9 µM (inactive) | > 100 µM (inactive) | > 100 µM (inactive) | 17.2 µM (inactive) | 73.8 µM (inactive) | > 100 µM (inactive) | 86.9 µM (inactive) | > 100 µM (inactive) | 25.2 µM (inactive) | 21.1 µM (inactive) | 81.1 | > 100 µM (inactive) | > 100 µM (inactive) | > 100 µM (inactive) | > 100 µM (inactive)
CC1=NN(C(=O)c2ccccc2O)C(c2ccccc2Cl)C1C(=O)Nc1ccccc1 (stereo unspecified) | 0.0553 µM (active) | < 0.0298 µM (active) | < 0.0213 µM (active) | 4.74 µM (inactive) | > 100 µM (inactive) | 0.119 µM (active) | 0.167 µM (active) | < 0.0457 µM (active) | – | 40.4 µM (inactive) | 2.84 µM (inactive) | 1.7 µM (inactive) | 0.458 µM (active) | 0.0975 µM (active) | 0.262 µM (active) | 0.0303 | < 0.0291 µM (active) | 0.283 µM (active) | 0.0288 µM (active) | < 0.0235 µM (active)
COC(=O)c1c(OC)cc2cc3c(c(O)c2c1C)C(=O)C1(O)C(=O)C=C(OC)C(OC(=O)CC(C)N)=C1C3=O (stereo unspecified) | – | 8.59 µM (inactive) | 33.5 µM (inactive) | 15.2 µM (inactive) | 18.2 µM (inactive) | 12.1 µM (inactive) | 26.9 µM (inactive) | 13.6 µM (inactive) | 2.54 µM (inactive) | 31.3 µM (inactive) | 6.68 µM (inactive) | 20 µM (inactive) | 87.3 µM (inactive) | 7.69 µM (inactive) | 29 µM (inactive) | 17.3 | 11.6 µM (inactive) | 19.4 µM (inactive) | 4.74 µM (inactive) | –
Cc1ccc(S(=O)(=O)n2ccc(-c3ccc4ccn(S(=O)(=O)c5ccc(C)cc5)c4c3)c2)cc1 | 12.9 µM (inactive) | > 100 µM (inactive) | > 100 µM (inactive) | > 100 µM (inactive) | – | > 100 µM (inactive) | > 100 µM (inactive) | > 100 µM (inactive) | 94.2 µM (inactive) | – | > 100 µM (inactive) | > 100 µM (inactive) | > 100 µM (inactive) | > 100 µM (inactive) | > 100 µM (inactive) | > 100 | > 100 µM (inactive) | > 100 µM (inactive) | > 100 µM (inactive) | > 100 µM (inactive)
N/C(=N\O)N/N=C/c1ccc2c(c1)OCO2 | 29 µM (inactive) | 27.7 µM (inactive) | 36.6 µM (inactive) | 22 µM (inactive) | 20.8 µM (inactive) | 38.5 µM (inactive) | 15.4 µM (inactive) | 12.9 µM (inactive) | – | 46 µM (inactive) | 35.6 µM (inactive) | 8.85 µM (inactive) | 24.7 µM (inactive) | 33.9 µM (inactive) | 26.6 µM (inactive) | 22 | 7.16 µM (inactive) | 39.5 µM (inactive) | 19.4 µM (inactive) | 18.5 µM (inactive)
Nc1cc2c(nc3c4ccccc4c(N)cc3[n+]2-c2cccc3ccccc23)c2ccccc12.Nc1cc2c(nc3c4ccccc4ccc3[n+]2-c2cccc3ccccc23)c2ccccc12 | 2.45 µM (inactive) | 7.74 µM (inactive) | 0.341 µM (active) | 1.57 µM (inactive) | 1.2 µM (inactive) | 1.25 µM (inactive) | 1.7 µM (inactive) | 1.21 µM (inactive) | 1.68 µM (inactive) | 7.06 µM (inactive) | – | 1.61 µM (inactive) | 7.28 µM (inactive) | 2.2 µM (inactive) | 2.81 µM (inactive) | 2.97 | 3.03 µM (inactive) | 1.15 µM (inactive) | 0.229 µM (active) | 0.448 µM (active)
Cc1ccc(C2SCC(=O)N2NC(=O)c2ccncc2)s1 (stereo unspecified) | > 100 µM (inactive) | > 100 µM (inactive) | > 100 µM (inactive) | > 100 µM (inactive) | > 100 µM (inactive) | > 100 µM (inactive) | > 100 µM (inactive) | > 100 µM (inactive) | – | > 100 µM (inactive) | > 100 µM (inactive) | > 100 µM (inactive) | > 100 µM (inactive) | > 100 µM (inactive) | > 100 µM (inactive) | > 100 | > 100 µM (inactive) | > 100 µM (inactive) | > 100 µM (inactive) | > 100 µM (inactive)
COC(C)(C)C(O)C(O)C[C@H](C)C1CC=C2C1(C)CCC1[C@@]3(C)CCC(OC(C)=O)C(C)(C)C3CC(OC3OC(COC(C)=O)C(O)C(O)C3O)[C@@]21C (stereo partly specified) | 3.85 µM (inactive) | 2.83 µM (inactive) | 4.37 µM (inactive) | – | 3.6 µM (inactive) | 2.78 µM (inactive) | 2.21 µM (inactive) | 4.8 µM (inactive) | 3.7 µM (inactive) | 4.57 µM (inactive) | 2.14 µM (inactive) | 4.79 µM (inactive) | 2.88 µM (inactive) | 3.03 µM (inactive) | 3.98 µM (inactive) | 3.85 | 7.1 µM (inactive) | 3.02 µM (inactive) | 3 µM (inactive) | 3.33 µM (inactive)
